From ChEMBL document CHEMBL1155444, “(Bis)urea and (bis)thiourea inhibitors of lysine-specific demethylase 1 as epigenetic modulators” (J Med Chem, 2010)
Activity calls are given as the source filed them. The calls are words filed in the database; no cut-off is given here.

Legend:
Format in all cases: cell-based
Conditions in all cases: HCT-116
[1] = target: Lysine-specific histone demethylase 1A (Homo sapiens) (UniProt O60341); assay: Inhibition of LSD1 in human HCT116 cells assessed as increase in cellular histone 3 dimethyllysine 9 level treated at increasing concentration after 48 hrs
[2] = target: Lysine-specific histone demethylase 1A (Homo sapiens) (UniProt O60341); assay: Inhibition of LSD1 in human HCT116 cells assessed as increase in cellular histone 3 methyllysine 4 level treated at increasing concentration after 48 hrs
[3] = target: Lysine-specific histone demethylase 1A (Homo sapiens) (UniProt O60341); assay: Inhibition of LSD1 in human HCT116 cells assessed as increase in cellular histone 3 dimethyllysine 4 level treated at increasing concentration after 48 hrs

SMILES | inhibition [1] | inhibition [2] | inhibition [3]
C/N=C(\NC)NCCCNCCCNCCCN/C(=N/C)NC | inactive | Active | Active
N=C(NCCCNCCCCCCCNCCCNC(=N)NC(=N)NCCC(c1ccccc1)c1ccccc1)NC(=N)NCCC(c1ccccc1)c1ccccc1 | inactive | Active | Active
